Where two headings read alike, the source gives them in different places.
Key:
inbred mouse strains = system: inbred mouse strains
Protocol: For the genetic analysis, the susceptibility of a panel of 16 inbred mouse strains to developing liver toxicity after a single 300 mg/kg intraperitoneal dose of acetaminophen was assessed. This dose is known to cause liver toxicity in mice. During the 24 hour period after dosing, serum alanine aminotransferase (ALT), morbidity and liver histochemistry were assessed as indices of liver toxicity.
Animal husbandry and drug treatment. Seven to eight week old male mice were obtained from Jackson Laboratory (Bar Harbor, Me.) and acclimatized for an additional week before use. The following 16 inbred mouse strains were studied: SJL, LGJ, BALB/cJ, DBA/2J, A/J, AKR/J, A/HeJ, 129/SvJ, B10.D2-H2/oSNJ, C57BL/6J, NZW/LaCJ, NZB/BInJ, MRL/MpJ, C3H/HeJ, LP/J, SM/J. The mice were housed under pathogen-free environment and provided food and water ad libitum with a 12h: 12h light: dark cycle until experimental use. Before each experiment, food was withheld from the animals overnight (greater than sixteen hours) to uniformly deplete hepatic glutathione stores. All mice were administered a single 300 mg/kg intraperitoneal dose of freshly prepared acetaminophen (Voigt Global Distribution Inc.) suspended in PBS (pH 7.4), and were allowed free access to food and water after treatment. The mice were euthanized by CO2 inhalation to collect blood samples and liver tissues at zero, three, and six hours after dosing. The remaining mice were monitored for 48 hours for the occurrence of acetaminophen-induced deaths. Blood samples were withdrawn by cardiac puncture and placed in EDTA-coated tubes, and plasma samples were isolated by centrifugation. Alanine aminotransferase (ALT) activity was measured at the Marshfield Clinic Laboratories (Marshfield, Wis.). Liver tissues were removed immediately and cut into two sections. The smaller section was fixed in buffered formalin, processed by standard histological techniques, stained with hematoxylin and eosin, and examined for histopathologic evidence of liver injury. The remaining sections were snap-frozen in liquid nitrogen and stored at −80° C. for gene expression and metabolite analysis.

hepatic glutathione = assay: Endogenous liver metabolite profiling by 1H-13C two-dimensional NMR after acetaminophen exposure; type: in vivo, mouse; details: three hours after acetaminophen administration
Protocol: Analysis of acetaminophen-induced endogenous metabolite and gene expression changes. Endogenous metabolites and gene expression changes in liver were examined at 0, 3 and 6 hours after acetaminophen exposure in the resistant (SJL) and three sensitive strains (DBA, SMJ and C57) strains in order to identify the pathways and genes contributing to resistance to acetaminophen-induced liver toxicity. The endogenous metabolites were profiled using ^1H—^13C two-dimensional-NMR analysis. Over 400 metabolite peaks were quantified and analyzed by this method, and principal component analysis (PCA) (Duda, 2001, Pattern Classification, John Wiley & Sons, Inc., pp. 568-569, which is hereby incorporated by reference herein) was used to identify metabolite peaks that distinguished the response of the sensitive strain from the three resistant strains. […]
Therefore, the metabolites within the peaks that distinguished the response of the resistant strain from the three sensitive strains at zero and three hours after drug exposure were identified. […] Using resonance assignments and confirmation experiments with purified compounds, the identity of eight of these nine peaks was determined. […]
NMR spectra were recorded at 300°K on a Bruker Avance 600 MHz spectrometer operating at ^1H frequency of 599.99 MHz and ^13C frequency of 150.87 MHz using a 3 mm Nalorac microprobe with z-axis pulsed-field gradient. […]

[1] = system: Ddit3, Dnajb1, and Gadd45ga; assay: Hepatic gene expression profiles (microarrays) after acetaminophen treatment; type: in vivo, mouse; details: liver; SJL and three sensitive strains
From the text: Differential susceptibility to a hepatotoxic dose of acetaminophen could result from differences in the rate of production of the reactive quinone metabolite that causes liver toxicity. […] Thus, a hepatotoxic dose of acetaminophen induces the formation of protein adducts and activates the DNA damage response in resistant SJL mice to the same extent as in the susceptible strains.
Therefore, the metabolites within the peaks that distinguished the response of the resistant strain from the three sensitive strains at zero and three hours after drug exposure were identified. […] Using resonance assignments and confirmation experiments with purified compounds, the identity of eight of these nine peaks was determined. Three peaks were assigned to glutathione. […] Five other metabolite peaks were assigned to alanine, lactate and betaine. Microarrays were simultaneously used to analyze gene expression in liver obtained from these four strains before (zero hr) and three hours after acetaminophen administration. […] This large number of differentially expressed genes limited the utility of analyzing the gene expression data by itself. However, an integrated analysis of the gene expression and metabolite data provided a more restricted set of pathways and genes to consider. […]

[2] = system: hepatic acetaminophen-protein adducts; details: resistant SJL strain compared with sensitive C57B6 strain; previously shown; cited from earlier work

SMILES: CC(=O)Nc1ccc(O)cc1 [acetaminophen]
- mortality (inbred mouse strains; 15 sensitive strains, single 300 mg/kg intraperitoneal dose): mortality in a significant percent of the mice
- mortality (inbred mouse strains; C57B6 mice, within six hours after dosing): 100%
- time at which mortality occurred after dosing (inbred mouse strains; DBA/2 strain): 48 h
- mortality (inbred mouse strains; SJL mice, single 300 mg/kg intraperitoneal dose): no mortality
- survival (inbred mouse strains; SJL mice, within forty-eight hours after treatment): all SJL mice survived
- time at which mortality occurred after dosing (inbred mouse strains; SMJ strain): 24 h
- increase in serum ALT (inbred mouse strains; mouse, in vivo, ip, 300 mg/kg): much smaller and transient increase
- mortality (inbred mouse strains; three sensitive strains (C57BL6, DBA/2, SMJ), within forty-eight hours after treatment): at least 60%
- hepatic glutathione concentration (hepatic glutathione; SJL strain): maintained its hepatic glutathione concentration
- hepatic glutathione levels (hepatic glutathione; three sensitive strains): significantly decreased
- level of expression of three DNA damage response genes (Ddit3, Dnajb1, Gadd45ga) [1]: increased to the same extent in all four strains
- hepatic acetaminophen-protein adducts generated [2]: same amount of hepatic acetaminophen-protein adducts
